# Assay results reported in patent US8163779B2, “Glucokinase activators” (Takeda San Diego, Inc., priority 2006, dated 2012).
# Target: T1, glucokinase (GK) (Homo sapiens, UniProt P35557)
# T1 construct: I.D. No. 1 corresponds to residues 12-465 of glucokinase; made in house; host or cells: E. coli DH10b-T1r
# T1 sequence (P35557 with tags, fused parts or gaps isoform P35557-2): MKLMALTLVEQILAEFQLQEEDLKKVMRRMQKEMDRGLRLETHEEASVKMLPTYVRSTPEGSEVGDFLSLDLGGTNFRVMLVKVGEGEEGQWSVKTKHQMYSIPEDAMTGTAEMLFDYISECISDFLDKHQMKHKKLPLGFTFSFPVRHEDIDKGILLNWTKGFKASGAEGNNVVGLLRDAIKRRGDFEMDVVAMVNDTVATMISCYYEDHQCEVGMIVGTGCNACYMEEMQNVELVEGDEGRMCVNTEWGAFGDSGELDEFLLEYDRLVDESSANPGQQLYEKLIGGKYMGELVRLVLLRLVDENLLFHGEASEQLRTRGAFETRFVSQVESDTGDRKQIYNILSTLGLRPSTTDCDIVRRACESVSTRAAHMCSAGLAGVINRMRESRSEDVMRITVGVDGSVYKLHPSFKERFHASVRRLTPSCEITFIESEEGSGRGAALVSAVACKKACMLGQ
# Assay: enzymatic glucokinase activity assay (ATP consumption, KinaseGlo luminescence)
# Type: biochemical
# Details: recombinant GK residues 12-465; 5 μM ATP, 5 mM Glucose; Kact = concentration that displays 50% of the maximal increase in GK activity; read-out: pKact
# Summary of the method: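 Activation was scored as ATP consumption, quantified by KinaseGlo luciferase luminescence after a 60 min room-temperature reaction. Reactions contained E. coli-expressed, purified GK, 5 μM ATP, 5 mM glucose, 10 mM MgCl2, 0.01% Brij35 and 2% DMSO at pH 7.2; pKact was fitted non-linearly.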
row,Compound,EC50 [µM]
1,"Cc1cc(S(=O)(=O)C2CC2)cc(=O)n1[C@H](CC1CCCC1)C(=O)Nc1cnccn1 [Example 170, (R)-3-cyclopentyl-2-(4-(cyclopropylsulfonyl)-6-methyl-2-oxopyridin-1(2H)-yl)-N-(pyrazin-2-yl)propanamide]",> 15.8
2,"Cc1cc(S(=O)(=O)C2CC2)cc(=O)n1[C@@H](CC1CCCC1)C(=O)Nc1cnccn1 [Example 171, (S)-3-cyclopentyl-2-(4-(cyclopropylsulfonyl)-6-methyl-2-oxopyridin-1(2H)-yl)-N-(pyrazin-2-yl)propanamide]",1.58 to 15.8
3,"Cc1cc(S(=O)(=O)C2CCOCC2)cc(=O)n1C(CC1CCCC1)C(=O)Nc1ncc(Cl)s1 (stereo not shown) [Example 174, N-(5-chlorothiazol-2-yl)-3-cyclopentyl-2-(6-methyl-2-oxo-4-(tetrahydro-2H-pyran-4-ylsulfonyl)pyridin-1(2H)-yl)propanamide]",1.58 to 15.8
4,"Cc1cc(S(=O)(=O)C2CCCC2)cc(=O)n1C(CC1CCOCC1)C(=O)Nc1cnccn1 (stereo not shown) [Example 177, 2-(4-(cyclopentylsulfonyl)-6-methyl-2-oxopyridin-1(2H)-yl)-N-(pyrazin-2-yl)-3-(tetrahydro-2H-pyran-4-yl)propanamide]",> 15.8
5,"Cc1cc(S(=O)(=O)C2CC2)cc(=O)n1C(CC1CCCC1)C(=O)Nc1ncc(Cl)s1 (stereo not shown) [Example 178, N-(5-chlorothiazol-2-yl)-3-cyclopentyl-2-(4-(cyclopropylsulfonyl)-6-methyl-2-oxopyridin-1(2H)-yl)propanamide]",< 1.58
6,"O=C(Nc1ncc(Cl)s1)C(CC1CCOCC1)n1cc(Cl)c(S(=O)(=O)C2CC2)cc1=O (stereo not shown) [Example 179, 2-(5-chloro-4-(cyclopropylsulfonyl)-2-oxopyridin-1(2H)-yl)-N-(5-chlorothiazol-2-yl)-3-(tetrahydro-2H-pyran-4-yl)propanamide]",1.58 to 15.8
7,"Cc1cc(S(=O)(=O)C2CC2)cc(=O)n1[C@@H](CC1CCCC1)C(=O)Nc1ccc(C(N)=O)cn1 [Example 180, (S)-6-(3-cyclopentyl-2-(4-(cyclopropylsulfonyl)-6-methyl-2-oxopyridin-1(2H)-yl)propanamido)nicotinamide]",1.58 to 15.8
8,"Cc1cc(S(=O)(=O)C2CCCC2)cc(=O)n1[C@H](CC1CCOCC1)C(=O)Nc1ccc(C(N)=O)cn1 [Example 181, (R)-6-(2-(4-(cyclopentylsulfonyl)-6-methyl-2-oxopyridin-1(2H)-yl)-3-(tetrahydro-2H-pyran-4-yl)propanamido)nicotinamide]",> 15.8
9,"Cc1cc(S(=O)(=O)C2CCCC2)cc(=O)n1[C@@H](CC1CCOCC1)C(=O)Nc1ccc(C(N)=O)cn1 [Example 182, (S)-6-(2-(4-(cyclopentylsulfonyl)-6-methyl-2-oxopyridin-1(2H)-yl)-3-(tetrahydro-2H-pyran-4-yl)propanamido)nicotinamide]",1.58 to 15.8
10,"Cc1cc(S(=O)(=O)C2CC2)cc(=O)n1[C@@H](CC1CCCC1)C(=O)Nc1ncc(Cl)s1 [Example 183, (S)-N-(5-chlorothiazol-2-yl)-3-cyclopentyl-2-(4-(cyclopropylsulfonyl)-6-methyl-2-oxopyridin-1(2H)-yl)propanamide]",< 1.58
11,"O=C(Nc1ncc(Cl)s1)C(CC1CCOCC1)n1cc(Cl)c(S(=O)(=O)C2CCCC2)cc1=O (stereo not shown) [Example 185, 2-(5-chloro-4-(cyclopentylsulfonyl)-2-oxopyridin-1(2H)-yl)-N-(5-chlorothiazol-2-yl)-3-(tetrahydro-2H-pyran-4-yl)propanamide]",1.58 to 15.8
12,"O=C(Nc1ncc(F)s1)C(CC1CCOCC1)n1cc(Cl)c(S(=O)(=O)C2CCCC2)cc1=O (stereo not shown) [Example 186, 2-(5-chloro-4-(cyclopentylsulfonyl)-2-oxopyridin-1(2H)-yl)-N-(5-fluorothiazol-2-yl)-3-(tetrahydro-2H-pyran-4-yl)propanamide]",1.58 to 15.8
13,"Cc1cc(S(=O)(=O)C2CCS(=O)(=O)CC2)cc(=O)n1[C@@H](CC1CCCCC1)C(=O)Nc1ncc(Cl)s1 [Example 187, (S)-N-(5-chlorothiazol-2-yl)-2-(4-(1,1-dioxotetrahydrothiopyran-4-ylsulfonyl)-6-methyl-2-oxopyridin-1(2H)-yl)-3-cyclohexyipropanamide]",1.58 to 15.8
14,"Cc1cc(S(=O)(=O)C2CCS(=O)(=O)CC2)cc(=O)n1[C@H](CC1CCCCC1)C(=O)Nc1ncc(Cl)s1 [Example 188, (R)-N-(5-chlorothiazol-2-yl)-2-(4-(1,1-dioxotetrahydrothiopyran-4-ylsulfonyl)-6-methyl-2-oxopyridin-1(2H)-yl)-3-cyclohexylpropanamide]",> 15.8
15,"O=C(Nc1ncc(Cl)s1)[C@@H](CC1CCOCC1)n1cc(Cl)c(S(=O)(=O)C2CC2)cc1=O [Example 195, (R)-2-(5-chloro-4-(cyclopropylsulfonyl)-2-oxopyridin-1(2H)-yl)-N-(5-chlorothiazol-2-yl)-3-(tetrahydro-2H-pyran-4-yl)propanamide]",> 15.8
16,"O=C(Nc1ncc(Cl)s1)[C@H](CC1CCOCC1)n1cc(Cl)c(S(=O)(=O)C2CC2)cc1=O [Example 196, (S)-2-(5-chloro-4-(cyclopropylsulfonyl)-2-oxopyridin-1(2H)-yl)-N-(5-chlorothiazol-2-yl)-3-(tetrahydro-2H-pyran-4-yl)propanamide]",1.58 to 15.8
17,"O=C(Nc1ncc(F)s1)[C@@H](CC1CCOCC1)n1cc(Cl)c(S(=O)(=O)C2CC2)cc1=O [Example 197, (R)-2-(5-chloro-4-(cyclopropylsulfonyl)-2-oxopyridin-1(2H)-yl)-N-(5-fluorothiazol-2-yl)-3-(tetrahydro-2H-pyran-4-yl)propanamide]",> 15.8

# Results, then the molecule that gave them:
row,EC50 [µM],Compound
1,< 1.58,"Cc1cc(S(=O)(=O)c2cccc(Cl)c2)cc(=O)n1[C@@H](CC1CCOCC1)C(=O)Nc1ncc(F)s1 [Example 168, (S)2-(4-(3-chlorophenylsulfonyl)-6-methyl-2-oxopyridin-1(2H)-yl)-N-(5-fluorothiazol-2-yl)-3-(tetrahydro-2H-pyran-4-yl)propanamide]"
2,> 15.8,"Cc1cc(S(=O)(=O)c2cccc(Cl)c2)cc(=O)n1[C@H](CC1CCOCC1)C(=O)Nc1ncc(F)s1 [Example 169, (R)-2-(4-(3-chlorophenylsulfonyl)-6-methyl-2-oxopyridin-1(2H)-yl)-N-(5-fluorothiazol-2-yl)-3-(tetrahydro-2H-pyran-4-yl)propanamide]"
3,< 1.58,"Cc1cc(S(=O)(=O)C2CC2)cc(=O)n1[C@@H](CC1CCOCC1)C(=O)Nc1ncc(Cl)s1 [Example 172, (S)-N-(5-chlorothiazol-2-yl)-2-(4-(cyclopropylsulfonyl)-6-methyl-2-oxopyridin-1(2H)-yl)-3-(tetrahydro-2H-pyran-4-yl)propanamide]"
4,> 15.8,"Cc1cc(S(=O)(=O)C2CC2)cc(=O)n1[C@H](CC1CCOCC1)C(=O)Nc1ncc(Cl)s1 [Example 173, (R)-N-(5-chlorothiazol-2-yl)-2-(4-(cyclopropylsulfonyl)-6-methyl-2-oxopyridin-1(2H)-yl)-3-(tetrahydro-2H-pyran-4-yl)propanamide]"
5,1.58 to 15.8,"Cc1cc(S(=O)(=O)C2CCOCC2)cc(=O)n1C(CC1CCCC1)C(=O)Nc1ncc(F)s1 (stereo not shown) [Example 175, 3-cyclopentyl-N-(5-fluorothiazol-2-yl)-2-(6-methyl-2-oxo-4-(tetrahydro-2H-pyran-4-ylsulfonyl)pyridin-1(2H)-yl)propanamide]"
6,1.58 to 15.8,"Cc1cc(S(=O)(=O)c2cccc(F)c2)cc(=O)n1[C@@H](CC1CCOCC1)C(=O)Nc1ncc(F)s1 [Example 189, (S)-2-(4-(3-fluorophenylsulfonyl)-6-methyl-2-oxopyridin-1(2H)-yl)-N-(5-fluorothiazol-2-yl)-3-(tetrahydro-2H-pyran-4-yl)propanamide]"
7,> 15.8,"Cc1cc(S(=O)(=O)c2cccc(F)c2)cc(=O)n1[C@H](CC1CCOCC1)C(=O)Nc1ncc(F)s1 [Example 190, (R)-2-(4-(3-fluorophenylsulfonyl)-6-methyl-2-oxopyridin-1(2H)-yl)-N-(5-fluorothiazol-2-yl)-3-(tetrahydro-2H-pyran-4-yl)propanamide]"
8,1.58 to 15.8,"Cc1cc(S(=O)(=O)C2CCOCC2)cc(=O)n1[C@@H](CC1CCCC1)C(=O)Nc1ncc(Cl)s1 [Example 191, (S)-N-(5-chlorothiazol-2-yl)-3-cyclopentyl-2-(6-methyl-2-oxo-4-(tetrahydro-2H-pyran-4-ylsulfonyl)pyridin-1(2H)-yl)propanamide]"
9,> 15.8,"Cc1cc(S(=O)(=O)C2CCOCC2)cc(=O)n1[C@H](CC1CCCC1)C(=O)Nc1ncc(Cl)s1 [Example 192, (R)-N-(5-chlorothiazol-2-yl)-3-cyclopentyl-2-(6-methyl-2-oxo-4-(tetrahydro-2H-pyran-4-ylsulfonyl)pyridin-1(2H)-yl)propanamide]"
10,1.58 to 15.8,"Cc1cc(S(=O)(=O)C2CCOCC2)cc(=O)n1[C@@H](CC1CCCC1)C(=O)Nc1ncc(F)s1 [Example 193, (S)-3-cyclopentyl-N-(5-fluorothiazol-2-yl)-2-(6-methyl-2-oxo-4-(tetrahydro-2H-pyran-4-ylsulfonyl)pyridin-1(2H)-yl)propanamide]"
11,> 15.8,"Cc1cc(S(=O)(=O)C2CCOCC2)cc(=O)n1[C@H](CC1CCCC1)C(=O)Nc1ncc(F)s1 [Example 194, (R)-3-cyclopentyl-N-(5-fluorothiazol-2-yl)-2-(6-methyl-2-oxo-4-(tetrahydro-2H-pyran-4-ylsulfonyl)pyridin-1(2H)-yl)propanamide]"
